Source: the kinase profiling compilation of Christmann-Franck et al. (2016)

Tests used:
Experiment in all cases: radiometric filter-binding kinase assay, Kinase HotSpot
Settings in all cases: compound 0.5 µM; ATP 10 µM
MAPK8 (human) = MAPK8 (human) (UniProt P45983)
CAMK1 (human) = CAMK1 (human) (UniProt Q14012)
MINK1 (human) = MINK1 (human) (UniProt Q8N4C8)
ADRBK2 (human) = ADRBK2 (human) (UniProt P35626)
[1] = target: JAK1 JH1 catalytic (human) (UniProt P23458)
DYRK1A (human) = DYRK1A (human) (UniProt Q13627)
TAOK3 (human) = TAOK3 (human) (UniProt Q9H2K8)
NLK (human) = NLK (human) (UniProt Q9UBE8)
PTK2B (human) = PTK2B (human) (UniProt Q14289)
DYRK4 (human) = DYRK4 (human) (UniProt Q9NR20)
DYRK2 (human) = DYRK2 (human) (UniProt Q92630)
IRAK4 (human) = IRAK4 (human) (UniProt Q9NWZ3)
STK24 (human) = STK24 (human) (UniProt Q9Y6E0)
SRPK2 (human) = SRPK2 (human) (UniProt P78362)
AKT3 (human) = AKT3 (human) (UniProt Q9Y243)
MYLK (human) = MYLK (human) (UniProt Q15746)
CHUK (human) = CHUK (human) (UniProt O15111)
ADRBK1 (human) = ADRBK1 (human) (UniProt P25098)
SRPK1 (human) = SRPK1 (human) (UniProt Q96SB4)
DSTYK (human) = DSTYK (human) (UniProt Q6XUX3)
NEK7 (human) = NEK7 (human) (UniProt Q8TDX7)
IRAK1 (human) = IRAK1 (human) (UniProt P51617)
FER (human) = FER (human) (UniProt P16591)
ERBB2 (human) = ERBB2 (human) (UniProt P04626)
PIM2 (human) = PIM2 (human) (UniProt Q9P1W9)
MAPK14 (human) = MAPK14 (human) (UniProt Q16539)
STK33 (human) = STK33 (human) (UniProt Q9BYT3)
CDK6 CCND1 (human) = CDK6 CCND1 (human) (UniProt Q00534+P24385)
PTK2 (human) = PTK2 (human) (UniProt Q05397)
CAMK1G (human) = CAMK1G (human) (UniProt Q96NX5)
CDK9 CCNK (human) = CDK9 CCNK (human) (UniProt O75909+P50750)
CDK7 CCNH MNAT1 (human) = CDK7 CCNH MNAT1 (human) (UniProt P50613+P51948+P51946)
FGR (human) = FGR (human) (UniProt P09769)
EPHA2 (human) = EPHA2 (human) (UniProt P29317)
BLK (human) = BLK (human) (UniProt P51451)
FGFR1 (human) = FGFR1 (human) (UniProt P11362)
DAPK3 (human) = DAPK3 (human) (UniProt O43293)
NEK3 (human) = NEK3 (human) (UniProt P51956)
PAK7 (human) = PAK7 (human) (UniProt Q9P286)
MAPK12 (human) = MAPK12 (human) (UniProt P53778)
MST4 (human) = MST4 (human) (UniProt Q9P289)
CSF1R (human) = CSF1R (human) (UniProt P07333)

Sequence of PIM2 (human) (Q9P1W9 whole entry, looked up): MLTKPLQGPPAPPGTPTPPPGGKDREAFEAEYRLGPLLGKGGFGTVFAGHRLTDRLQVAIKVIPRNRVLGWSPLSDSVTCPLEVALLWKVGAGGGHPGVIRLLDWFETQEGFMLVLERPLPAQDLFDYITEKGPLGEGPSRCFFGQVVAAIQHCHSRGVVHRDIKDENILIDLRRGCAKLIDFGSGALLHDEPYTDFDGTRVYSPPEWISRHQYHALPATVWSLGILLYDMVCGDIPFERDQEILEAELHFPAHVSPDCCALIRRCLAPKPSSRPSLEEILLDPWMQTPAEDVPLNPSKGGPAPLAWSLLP
Sequence of CDK9 CCNK (human) (O75909 whole entry, looked up): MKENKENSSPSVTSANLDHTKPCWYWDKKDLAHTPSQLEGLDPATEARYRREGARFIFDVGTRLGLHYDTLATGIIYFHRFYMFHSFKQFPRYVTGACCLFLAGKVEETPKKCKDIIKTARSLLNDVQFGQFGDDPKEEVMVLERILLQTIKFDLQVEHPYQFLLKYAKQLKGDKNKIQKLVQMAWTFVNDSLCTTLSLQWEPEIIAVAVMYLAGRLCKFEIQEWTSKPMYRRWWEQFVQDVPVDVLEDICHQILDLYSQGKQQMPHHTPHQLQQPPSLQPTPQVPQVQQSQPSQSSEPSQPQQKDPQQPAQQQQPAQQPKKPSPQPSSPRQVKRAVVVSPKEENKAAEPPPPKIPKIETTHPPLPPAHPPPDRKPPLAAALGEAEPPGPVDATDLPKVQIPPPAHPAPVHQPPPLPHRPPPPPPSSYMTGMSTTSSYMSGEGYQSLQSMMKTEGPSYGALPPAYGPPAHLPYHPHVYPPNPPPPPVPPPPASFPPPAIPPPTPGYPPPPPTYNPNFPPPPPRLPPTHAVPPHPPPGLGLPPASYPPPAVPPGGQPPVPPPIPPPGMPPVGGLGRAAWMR
Sequence of CDK9 CCNK (human) (P50750 whole entry, looked up): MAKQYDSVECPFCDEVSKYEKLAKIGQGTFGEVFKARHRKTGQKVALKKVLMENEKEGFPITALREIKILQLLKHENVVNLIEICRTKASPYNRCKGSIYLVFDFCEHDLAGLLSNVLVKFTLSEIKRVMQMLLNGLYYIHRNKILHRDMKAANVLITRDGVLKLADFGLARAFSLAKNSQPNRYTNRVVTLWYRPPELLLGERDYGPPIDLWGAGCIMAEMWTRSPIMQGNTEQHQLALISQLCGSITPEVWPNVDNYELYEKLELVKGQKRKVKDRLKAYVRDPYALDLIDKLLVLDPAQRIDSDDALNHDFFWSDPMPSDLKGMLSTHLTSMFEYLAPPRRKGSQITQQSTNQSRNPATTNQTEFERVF
Sequence of PTK2B (human) (Q14289 whole entry, looked up): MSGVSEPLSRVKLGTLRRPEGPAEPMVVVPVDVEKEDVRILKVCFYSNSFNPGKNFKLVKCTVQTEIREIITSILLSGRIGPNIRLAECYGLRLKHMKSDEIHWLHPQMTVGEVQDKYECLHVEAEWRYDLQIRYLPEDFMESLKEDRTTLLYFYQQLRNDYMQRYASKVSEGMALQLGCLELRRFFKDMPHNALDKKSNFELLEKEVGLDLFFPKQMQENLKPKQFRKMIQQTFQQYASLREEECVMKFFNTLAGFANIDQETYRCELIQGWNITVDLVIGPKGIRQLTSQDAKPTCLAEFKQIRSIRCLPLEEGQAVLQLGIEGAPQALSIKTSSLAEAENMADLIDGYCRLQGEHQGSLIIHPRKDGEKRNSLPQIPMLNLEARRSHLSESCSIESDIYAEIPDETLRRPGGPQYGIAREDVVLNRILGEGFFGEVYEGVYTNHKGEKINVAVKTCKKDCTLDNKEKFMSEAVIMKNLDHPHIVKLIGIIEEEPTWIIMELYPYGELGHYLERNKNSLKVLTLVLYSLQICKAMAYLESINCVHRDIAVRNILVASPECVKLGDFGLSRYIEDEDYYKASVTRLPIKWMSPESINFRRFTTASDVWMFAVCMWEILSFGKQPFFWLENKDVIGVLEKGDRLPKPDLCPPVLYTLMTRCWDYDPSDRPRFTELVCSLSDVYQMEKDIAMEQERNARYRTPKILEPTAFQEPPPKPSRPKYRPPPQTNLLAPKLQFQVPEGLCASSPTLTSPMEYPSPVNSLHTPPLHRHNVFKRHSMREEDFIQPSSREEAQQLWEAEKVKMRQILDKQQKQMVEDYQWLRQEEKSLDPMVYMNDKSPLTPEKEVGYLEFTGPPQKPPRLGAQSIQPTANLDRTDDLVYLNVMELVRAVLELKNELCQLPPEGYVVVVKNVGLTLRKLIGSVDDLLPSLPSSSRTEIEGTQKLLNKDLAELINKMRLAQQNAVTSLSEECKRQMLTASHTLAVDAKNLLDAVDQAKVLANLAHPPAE
Sequence of DYRK4 (human) (Q9NR20 whole entry, looked up): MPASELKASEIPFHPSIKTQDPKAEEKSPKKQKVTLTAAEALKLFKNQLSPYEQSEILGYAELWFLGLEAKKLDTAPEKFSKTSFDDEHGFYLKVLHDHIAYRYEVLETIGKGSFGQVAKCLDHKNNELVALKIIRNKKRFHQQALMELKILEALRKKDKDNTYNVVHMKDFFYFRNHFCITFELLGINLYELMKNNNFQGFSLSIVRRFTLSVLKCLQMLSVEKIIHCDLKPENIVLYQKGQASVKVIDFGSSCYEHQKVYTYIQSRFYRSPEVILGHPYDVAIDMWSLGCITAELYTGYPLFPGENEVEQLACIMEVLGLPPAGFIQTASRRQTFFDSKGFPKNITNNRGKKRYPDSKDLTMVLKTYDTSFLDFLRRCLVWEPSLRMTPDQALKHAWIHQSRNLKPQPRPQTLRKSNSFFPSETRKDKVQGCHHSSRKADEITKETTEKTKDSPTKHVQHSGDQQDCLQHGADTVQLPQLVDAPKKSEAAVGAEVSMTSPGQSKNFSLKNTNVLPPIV
Sequence of MYLK (human) (Q15746 whole entry, looked up): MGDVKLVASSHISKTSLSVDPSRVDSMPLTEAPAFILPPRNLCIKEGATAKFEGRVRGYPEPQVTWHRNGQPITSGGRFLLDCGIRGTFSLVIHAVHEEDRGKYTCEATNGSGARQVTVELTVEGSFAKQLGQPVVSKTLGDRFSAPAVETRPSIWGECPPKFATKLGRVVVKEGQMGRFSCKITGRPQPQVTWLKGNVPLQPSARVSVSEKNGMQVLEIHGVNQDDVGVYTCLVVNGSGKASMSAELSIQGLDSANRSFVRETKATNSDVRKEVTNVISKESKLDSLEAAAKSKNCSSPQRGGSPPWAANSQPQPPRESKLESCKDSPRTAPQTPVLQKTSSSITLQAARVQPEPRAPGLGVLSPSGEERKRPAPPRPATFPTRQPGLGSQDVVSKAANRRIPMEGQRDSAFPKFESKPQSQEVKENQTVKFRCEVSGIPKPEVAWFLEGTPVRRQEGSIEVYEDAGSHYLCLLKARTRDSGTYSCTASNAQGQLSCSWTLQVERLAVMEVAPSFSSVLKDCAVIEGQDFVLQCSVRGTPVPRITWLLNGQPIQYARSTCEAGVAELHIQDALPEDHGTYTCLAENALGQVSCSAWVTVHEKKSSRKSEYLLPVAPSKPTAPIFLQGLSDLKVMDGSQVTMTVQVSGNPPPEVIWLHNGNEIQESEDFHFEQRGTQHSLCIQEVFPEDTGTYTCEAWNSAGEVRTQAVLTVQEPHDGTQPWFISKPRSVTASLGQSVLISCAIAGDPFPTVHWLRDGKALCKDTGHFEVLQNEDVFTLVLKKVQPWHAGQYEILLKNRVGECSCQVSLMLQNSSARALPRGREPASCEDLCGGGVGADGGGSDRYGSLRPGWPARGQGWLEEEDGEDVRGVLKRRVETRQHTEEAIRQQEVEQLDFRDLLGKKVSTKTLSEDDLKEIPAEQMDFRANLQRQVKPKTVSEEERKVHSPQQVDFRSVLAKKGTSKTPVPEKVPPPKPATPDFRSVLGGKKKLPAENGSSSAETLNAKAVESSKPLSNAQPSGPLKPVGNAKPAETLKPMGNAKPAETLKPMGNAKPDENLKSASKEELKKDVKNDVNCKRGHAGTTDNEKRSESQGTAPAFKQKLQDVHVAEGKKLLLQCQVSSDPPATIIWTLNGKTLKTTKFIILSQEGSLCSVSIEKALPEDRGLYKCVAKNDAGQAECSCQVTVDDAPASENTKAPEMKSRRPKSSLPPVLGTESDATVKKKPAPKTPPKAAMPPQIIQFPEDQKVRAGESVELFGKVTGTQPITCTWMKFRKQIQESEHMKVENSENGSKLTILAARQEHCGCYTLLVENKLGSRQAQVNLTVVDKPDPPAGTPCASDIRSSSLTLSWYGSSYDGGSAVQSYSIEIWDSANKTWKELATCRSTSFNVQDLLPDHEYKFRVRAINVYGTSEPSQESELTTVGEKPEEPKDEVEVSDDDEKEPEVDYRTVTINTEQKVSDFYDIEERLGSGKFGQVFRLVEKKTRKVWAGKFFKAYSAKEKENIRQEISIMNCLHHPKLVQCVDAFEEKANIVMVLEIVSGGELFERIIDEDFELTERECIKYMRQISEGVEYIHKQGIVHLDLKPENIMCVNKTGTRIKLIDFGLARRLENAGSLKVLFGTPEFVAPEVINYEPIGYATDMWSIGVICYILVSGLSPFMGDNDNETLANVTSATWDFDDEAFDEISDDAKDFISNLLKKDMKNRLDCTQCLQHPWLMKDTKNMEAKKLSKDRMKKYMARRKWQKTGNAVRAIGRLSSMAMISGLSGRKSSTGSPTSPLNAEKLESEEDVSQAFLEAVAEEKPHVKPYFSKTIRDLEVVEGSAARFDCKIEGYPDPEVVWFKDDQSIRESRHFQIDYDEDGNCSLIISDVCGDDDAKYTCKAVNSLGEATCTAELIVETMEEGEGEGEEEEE
Sequence of CAMK1 (human) (Q14012 whole entry, looked up): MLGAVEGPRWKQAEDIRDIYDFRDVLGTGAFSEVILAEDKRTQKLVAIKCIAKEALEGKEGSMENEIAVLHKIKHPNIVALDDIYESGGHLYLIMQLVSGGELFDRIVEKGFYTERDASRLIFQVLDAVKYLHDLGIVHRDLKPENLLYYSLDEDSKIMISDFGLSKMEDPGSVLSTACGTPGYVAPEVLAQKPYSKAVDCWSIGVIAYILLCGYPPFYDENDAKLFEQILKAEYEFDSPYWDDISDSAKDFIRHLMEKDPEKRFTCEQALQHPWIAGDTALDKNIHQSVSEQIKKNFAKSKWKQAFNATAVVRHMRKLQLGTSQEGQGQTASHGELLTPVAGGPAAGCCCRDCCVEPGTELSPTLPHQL

## COc1ccc(COc2ccc(Cc3cnc(N)nc3N)cc2OC)cc1
MAPK8 (human)
  residual activity: 91.9%
CAMK1 (human)
  residual activity: 103%
MINK1 (human)
  residual activity: 86.5%
ADRBK2 (human)
  residual activity: 103%
[1]
  residual activity: 105%
DYRK1A (human)
  residual activity: 88.1%
TAOK3 (human)
  residual activity: 102%
NLK (human)
  residual activity: 105%
PTK2B (human)
  residual activity: 86.1%
DYRK4 (human)
  residual activity: 101%
DYRK2 (human)
  residual activity: 105%
IRAK4 (human)
  residual activity: 110%
STK24 (human)
  residual activity: 93.5%
SRPK2 (human)
  residual activity: 87.4%
AKT3 (human)
  residual activity: 96.5%
MYLK (human)
  residual activity: 95.7%
CHUK (human)
  residual activity: 94.7%
ADRBK1 (human)
  residual activity: 96.1%
SRPK1 (human)
  residual activity: 90.4%
DSTYK (human)
  residual activity: 95%
NEK7 (human)
  residual activity: 100%
IRAK1 (human)
  residual activity: 123%
FER (human)
  residual activity: 93.4%
ERBB2 (human)
  residual activity: 106%
PIM2 (human)
  residual activity: 107%
MAPK14 (human)
  residual activity: 106%
STK33 (human)
  residual activity: 96.4%
CDK6 CCND1 (human)
  residual activity: 101%
PTK2 (human)
  residual activity: 95.5%
CAMK1G (human)
  residual activity: 98.3%
CDK9 CCNK (human)
  residual activity: 102%
CDK7 CCNH MNAT1 (human)
  residual activity: 100%
FGR (human)
  residual activity: 92.3%
EPHA2 (human)
  residual activity: 107%
BLK (human)
  residual activity: 98.6%
FGFR1 (human)
  residual activity: 108%
DAPK3 (human)
  residual activity: 104%
NEK3 (human)
  residual activity: 98.1%
PAK7 (human)
  residual activity: 103%
MAPK12 (human)
  residual activity: 102%
MST4 (human)
  residual activity: 95.5%

## CCN(CC)CCNC(=O)c1c(C)[nH]c(/C=C2\C(=O)Nc3ccc(F)cc32)c1C
MAPK8 (human)
  residual activity: 91.8%
CAMK1 (human)
  residual activity: 75.2%
MINK1 (human)
  residual activity: 10.5%
ADRBK2 (human)
  residual activity: 94.8%
[1]
  residual activity: 71.9%
DYRK1A (human)
  residual activity: 56.9%
TAOK3 (human)
  residual activity: 82.9%
NLK (human)
  residual activity: 105%
PTK2B (human)
  residual activity: 38.3%
DYRK4 (human)
  residual activity: 104%
CSF1R (human)
  residual activity: 7.28%
DYRK2 (human)
  residual activity: 82.6%
IRAK4 (human)
  residual activity: 27.4%
STK24 (human)
  residual activity: 39.7%
SRPK2 (human)
  residual activity: 95%
AKT3 (human)
  residual activity: 71.7%
MYLK (human)
  residual activity: 25.6%
CHUK (human)
  residual activity: 92.4%
ADRBK1 (human)
  residual activity: 94.7%
SRPK1 (human)
  residual activity: 97%
DSTYK (human)
  residual activity: 111%
NEK7 (human)
  residual activity: 93.5%
IRAK1 (human)
  residual activity: 31.4%
FER (human)
  residual activity: 31.6%
ERBB2 (human)
  residual activity: 105%
PIM2 (human)
  residual activity: 97.2%
MAPK14 (human)
  residual activity: 105%
STK33 (human)
  residual activity: 31.8%
CDK6 CCND1 (human)
  residual activity: 50.5%
CDK9 CCNK (human)
  residual activity: 80.2%
CDK7 CCNH MNAT1 (human)
  residual activity: 73.4%
FGR (human)
  residual activity: 16.4%
EPHA2 (human)
  residual activity: 83.6%
BLK (human)
  residual activity: 28.7%
FGFR1 (human)
  residual activity: 66.1%
DAPK3 (human)
  residual activity: 74.2%
NEK3 (human)
  residual activity: 91.6%
PAK7 (human)
  residual activity: 81.6%
MAPK12 (human)
  residual activity: 95.8%
MST4 (human)
  residual activity: 110%
